Earlier results, collected in patent US7771771B2, “Phytosterol compositions” (Raisio Nutrition Ltd., priority 1998, dated 2010).

Key:
[1] = system: cholesterol content of mixed micelles; details: compared with sitosterol
[2] = in words
serum cholesterol = details: rats; compared with sitosterol
[3] = system: serum cholesterol; aortic atheroma; details: compared with sitosterol
LDL cholesterol = details: children with severe familial hypercholesterolemia; compared with sitosterol

## CC[C@H](CC[C@@H](C)[C@H]1CC[C@H]2[C@@H]3CC[C@H]4C[C@@H](O)CC[C@]4(C)[C@H]3CC[C@]12C)C(C)C [sitostanol]
[1]
  lowering of the cholesterol content of mixed micelles: more efficiently than sitosterol
[2]
  absorption: virtually unabsorbed
Serum cholesterol
  hypocholesterolemic activity: higher hypocholes-terolemic activity than sitosterol
[3]
  formation of aortic atheroma due to cholesterol feeding: depressed the formation of aortic atheroma due to cholesterol feeding more than did sitosterol
LDL cholesterol
  reducing elevated levels of LDL cholesterol: significantly more effective than sitosterol
